Data published in US20090069181A1, “Product and Process for Treating Water Bodies, Sediments and Soils” (SOLVAY SA, priority 2006, published 2009).

System: blue green algae
Test: Pond treatment, algae control in a four-foot deep pond (Example 1)
Format: in vivo
Settings: treated every two weeks for approximately 6 years during the warmer season
Excerpt: The solid form of this invention containing approximately 70% calcium peroxide was applied to the pond by spreading it over the surface at a rate of 10 lbs per acre foot.

SMILES: O=S(=O)([O-])[O-].[Cu+2] [copper sulfate]
- control of algae: control of algae was still difficult
